Assay results taken from PMC7696255, “In-Silico Identified New Natural Sortase A Inhibitors Disrupt S. aureus Biofilm Formation” (International Journal of Molecular Sciences, 2020).
Converted amounts (≈) assume the structure as drawn. Structures can show the parent of a compound that is named as a salt. Where two headings read alike, the source gives them in different places.

Columns and labels:
A549 cells = experiment: Mammalian cell cytotoxicity assay (PrestoBlue); type: cell-based, human; details: read-out: Mammalian cell lines IC50
Protocol: (§1) A549 and HepG2 cells were seeded at 1500 and 2500 cells per well, respectively, in 384-well microplates and incubated at 37 °C in the presence of 5% CO2. The next day, cells were treated with compounds then incubated for an additional 72 h. To assess the cytotoxic effect of the compounds PrestoBlue cell viability reagent (Life Technologies, Carlsbad, CA, USA) was used. After the 72 h incubation with compounds, the 384-well assay plates were incubated with this viability indicator dye for 2 h (A549) and 4 h (HepG2) before fluorescence reading at Ex/Em = 560 nm/590 nm on the Tecan Infinite M1000 Pro reader. Puromycin (data not shown) was used as the positive control against both cell lines. All tests were executed in triplicate on two separate experiments.

HepG2 cells = experiment: Mammalian cell cytotoxicity assay (PrestoBlue); type: cell-based, human; details: read-out: Mammalian cell lines IC50
Protocol: as §1

S. aureus sortase A [1] = molecular target: T1, S. aureus sortase A (Staphylococcus aureus, UniProt Q2FV99); experiment: SrtA enzyme inhibition FRET assay, DABCYL-LPETG-EDANS substrate; type: biochemical
T1 construct: purchased AnaSpec AS-72229
T1 sequence (Q2FV99 whole entry): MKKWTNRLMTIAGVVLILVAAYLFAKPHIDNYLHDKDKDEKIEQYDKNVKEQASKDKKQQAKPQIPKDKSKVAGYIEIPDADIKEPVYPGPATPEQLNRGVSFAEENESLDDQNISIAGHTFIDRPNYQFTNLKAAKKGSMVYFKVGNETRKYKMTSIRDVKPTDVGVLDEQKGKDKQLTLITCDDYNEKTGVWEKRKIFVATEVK
Protocol: (§2) The enzymatic reactions were carried out in black, low-binding polystyrene 384 well plates (Greiner Bio-One). […] SrtA was pre-incubated in the reaction buffer with compounds for 1 h at room temperature prior to the addition of the FRET substrate. Assays were performed in 50 µL reactions with 50 ng of S. aureus sortase A and 25 µM of DABCYL-LPETG-EDANS substrate or 1 µM of 5-FAM/QXL^TM 520 substrate. The inhibitory activity of the compounds was determined by monitoring the rise in fluorescence intensity over 24 h at Ex/Em = 336 nm/490 nm for the DABCYL/EDANS substrate and Ex/Em = 490 nm/520 nm for the 5-FAM/QXL 520 substrate on a Tecan Infinite M1000 Pro reader.
(§3) Raw fluorescence data were corrected for autofluorescence before computing percentage inhibition values. These percentage inhibition values were plotted against compound concentration using GraphPad Prism version 8.0 by nonlinear regression analysis using least squares fit method for IC50 determination. Testing was performed twice to ensure reproducibility of results.

S. aureus Newman = experiment: S. aureus whole cell assay (MIC, microbroth dilution); type: cell-based, Staphylococcus aureus; details: for MIC: Staphylococcus aureus, NEWMAN
Protocol: (§4) Minimum inhibitory concentration (MIC) tests were performed according to procedures of the Clinical Laboratory Standards Institute (CLSI) with minor changes using the microbroth dilution technique in a 384-well setup. Inoculum of each S. aureus strain was prepared by suspending segregated colonies in sterile saline to a 0.5 McFarland standard. An inoculum of 2–8 × 10^5 CFU/mL was incubated with the compounds for 24 h at 37 °C. Gentamicin (data not shown) was incubated in the same manner as the test compounds and served as a positive control. The effect of the compounds on bacterial growth was calculated by quantifying the optical density at 600 nm on a microplate reader (Tecan, Infinite M1000, Salzburg, Austria). Dilutions of the inoculum were cultivated on agar to verify the validity of the inoculum seeding density and absence of contamination. All tests were executed in triplicate during two separate experiments.

S. aureus ATCC 25923 = experiment: as above; type: cell-based, Staphylococcus aureus; details: for MIC: Staphylococcus aureus, ATCC25923, 24 h
Protocol: as §4

S. aureus sortase A [2] = molecular target: T1, S. aureus sortase A; experiment: SrtA enzyme inhibition FRET assay, 5-FAM/QXL 520 substrate; type: biochemical
Protocol: as §2, §3

[3] = test system: S. aureus ATCC 33591 (MRSA) pre-formed biofilms; experiment: Biofilm inhibitory assay (crystal violet), pre-formed biofilms; type: cell-based, Staphylococcus aureus; details: in words
Protocol: (§5) The effectiveness of SrtA inhibitors in reducing biofilm formation and growth was assessed using the crystal violet (CV) biofilm assay with the following modifications. TSB with 2% glucose (TSB without glucose for E. coli) was inoculated with 10^5 CFU/mL of S. aureus and E. coli overnight cultures. A total of 90µl of this cell suspension was then dispensed into 96-well microtiter plates containing 10 µL of different concentrations of the SrtA inhibitors. After 24 h growth at 37 °C the plates were washed with PBS to remove unbound cells and heat fixed at 60 °C for 30 min. Next, the wells were stained with 0.1% crystal violet solution for 15 min at room temperature. At the completion of the incubation plates were washed 3 times with PBS and dried. Then the crystal violet dye from the biofilm was solubilized with 200 µL of DMSO. A total of 100 µL of this solution was then moved to a new microtiter plate for absorbance measurement at 595 nm. For pre-formed biofilm assay, the plates were prepared and incubated as mentioned earlier, without SrtA inhibitors. After 24 h incubation, the culture supernatant was removed gently and biofilm carefully washed with sterile PBS. Next, 10 µL of different concentrations of SrtA inhibitors with 90 µL of TSB with 2% glucose were added carefully into the wells and incubated at 37 °C for 24 h. The amount of crystal violet staining of biofilm was measured as described above. The results were reported as percent inhibition normalized to the wild type control. Two independent experiments were performed in triplicate to ensure reproducibility.

[4] = test system: E. coli ATCC 25922 biofilm formation; experiment: Biofilm inhibitory assay (crystal violet), biofilm formation; type: cell-based; details: in words; CV assay
Protocol: as §5, with “Next, 10 µL of different concentrations of SrtA inhibitors with 90 µL of TSB with 2% glucose were added carefully into the wells and incubated at 37 °C for 24 h.” left out, “The results were reported as percent inhibition normalized to the wild type control. Two independent experiments were performed in triplicate to ensure reproducibility.” left out

[5] = test system: S. aureus Newman biofilm formation; experiment: as above; type: cell-based, Staphylococcus aureus; details: CV assay; for IC50: biofilm formation, read-out: Biofilm Inhibition IC50
Protocol: as §5

[6] = test system: S. aureus ATCC 33591 (MRSA) biofilm formation; experiment: as above; type: cell-based, Staphylococcus aureus
Protocol: as §5

[7] = test system: adherence of S. aureus Newman to fibrinogen; experiment: Fibrinogen binding assay; type: cell-based, Staphylococcus aureus
Protocol: Fibrinogen binding assay was completed as described but with slight revision. A flat-bottom 96-well plate was covered with fibrinogen protein by adding 50 µL of 20 µg/mL of fibrinogen protein from bovine plasma diluted in saline and incubated at 4 °C for 24 h. The coated plates were gently rinsed twice with PBS and blocked for 60 min with 4% bovine serum albumin (BSA). The plates were then washed 3 times with PBS. For this assay, S. aureus Newman strain was cultivated in TSB at 37 °C to exponential phase (OD600 = 0.5) and then the bacterial culture was incubated with various concentrations of test compound or control for 2.5 h. Then the cells were pelleted by centrifugation at 10,000× g for 10 min, the supernatants were removed and the cell pellets stored at −20 °C. The following day, cell pellets were suspended in PBS and dispersed in 100 μL aliquots to distinct wells of fibrinogen-coated 96-well plates. After 2 h of growth at 37 °C, the bacterial supernatant was discarded and the wells were rinsed gently with 150 µl PBS. Then the bacterial cells were fixed with 2% (v/v) glutaraldehyde and incubated for 30 min at 25 °C. After a wash with PBS, bound cells were stained with 0.1% crystal violet dye for 15 min. Plates were rinsed twice again with PBS, enclosed with aluminum foil, then stored at room temperature to dry overnight. On the next day absorbance was measured at 570 nm. The results were described as the percent of adhesion inhibition normalized to the wild type control. Two independent experiments were performed in triplicate to ensure reproducibility.

[8] = Sortase A IC50, DABCYL-LPETG-EDANS substrate, 4 h
[9] = Sortase A IC50, 5-FAM/QXL substrate, 10 min

Row | Structure (SMILES) | IC50 (A549 cells; Homo sapiens, A549, 72 h) [µM] | IC50 (HepG2 cells; Homo sapiens, HepG2, 72 h) [µM] | IC50 (S. aureus sortase A [1]; [8]) [µM] | MIC (S. aureus Newman; 24 h) [µM] | MIC (S. aureus ATCC 25923) [µM] | IC50 (S. aureus sortase A [2]; [9]) [µM] | IC50 (S. aureus sortase A [1]) [µM] | IC50 (S. aureus sortase A [2]) [µM] | further results
1 | O=C(/C=C/c1ccc(O)c(O)c1)O[C@@H]1C[C@](O)(C(=O)O)C[C@@H](O)[C@H]1O [Chlorogenic acid, reference compound] | > 200 | > 200 | 88 ± 5.6 | > 200 | > 200 | 144 ± 16 |  |  | growth inhibition of S. aureus (S. aureus Newman; at 200 µM, strain not given): did not inhibit the growth; IC50 (S. aureus sortase A [2]; Sortase A IC50, 5-FAM/QXL substrate, after 24 h): 103 ± 31 µM
2 | COc1ccc(C[C@H](N)C(=O)N[C@H]2[C@@H](O)[C@H](n3cnc4c(N(C)C)ncnc43)O[C@@H]2CO)cc1 [Compound N51, Puromycin hydrochloride] |  |  |  |  |  |  | > 200 | > 200 | 
3 | CC(C)(O)[C@H]1O[C@H]2CC[C@@]3(C)[C@@](O)(CC[C@H]4Cc5c([nH]c6ccccc56)[C@@]43C)C2=CC1=O [Compound N563, Paxilline] |  |  |  |  |  |  | > 200 | > 200 | 
4 | CC(C)=CCc1c(O)c(CC=C(C)C)c2occ(-c3ccc(O)cc3)c(=O)c2c1O [Compound N942, 6,8-diprenylgenistein] |  |  |  |  |  |  | > 200 | > 200 | 
5 | CC(C)=CCc1c2c(c(O)c3c(=O)c(-c4ccc(O)c(O)c4)coc13)C=CC(C)(C)O2 [Compound N1048, Auriculasin] |  |  |  |  |  |  | > 200 | > 200 | 
6 | Cc1cc(O)c2c(c1)C(=O)c1c(c(O)cc(O)c1-c1c(O)cc(O)c3c1C(=O)c1cc(C)cc(O)c1C3=O)C2=O [Compound N1287, Skyrin] | 64.7 ± 6.2 | 63.9 ± 5.1 | 24 ± 2.1 | 7.3 ± 0.8 (≈ 3.93 µg/mL) | 7.2 ± 0.1 (≈ 3.88 µg/mL) | 31 ± 0.3 |  |  | IC50 (A549 cells; 72 h): 60 to 90 µM; IC50 (HepG2 cells; 72 h): 60 to 90 µM; inhibitory activity on MRSA pre-formed biofilms [3]: not against pre-formed biofilms; effect on E. coli ATCC 25922 biofilm formation [4]: did not show any effect; IC50 (S. aureus sortase A [1]; SrtA enzymatic activity IC50, text summary, Figure 2A,B, both substrates): < 50 µM; S. aureus MIC (S. aureus Newman; Newman, 24 h): 5 to 8 µM; S. aureus MIC (S. aureus ATCC 25923; 24 h): 5 to 8 µM; concentration giving >90% inhibition of biofilm formation [5]: 23 µM; IC50 ([5]; Staphylococcus aureus, NEWMAN): 12.2 ± 4.1 µM; IC50 [5]: 12 µM; IC50 ([6]; Staphylococcus aureus, S. aureus ATCC 33591 (MRSA), biofilm formation, read-out: Biofilm Inhibition IC50): 41.9 µM; inhibitory activity on MRSA biofilm formation ([6]; in words): exhibited inhibitory activity; IC50 ([7]; Staphylococcus aureus, NEWMAN, read-out: Fibrinogen adherence Inhibition IC50): 9.5 ± 0.5 µM; concentration giving ≥90% prevention of S. aureus Newman adherence to fibrinogen ([7]; compared to untreated wildtype strain): 46 µM
